Measurements as given in PubChem BioAssay AID248 (DTP/NCI, 2004).
Several values for one entry are separate records, joined by “and”; a condition that tells them apart may be missing. Equal entries are not always repeated. Toxic doses and inconclusive results are not listed. Rule as the data show it: active = T/C of 150% or more; inactive = T/C below 125%.

System: L1210 leukemia ip in BDF1 mice, survival T/C
Assay: NCI In Vivo Anticancer Drug Screen. Data for tumor model L1210 Leukemia (intraperitoneal) in B6D2F1 (BDF1) mice
Conditions: endpoint: mean survival time, higher = longer survival
Method in brief: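 Mice bearing the transplanted tumor received compound or vehicle. Survival of the treated group was divided by that of the vehicle-treated control group to give the ratio.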

[1] = dose: 100.0 mg/kg/injection, schedule: Q01DX009 (ip), vehicle: Klucel (hydroxypropylcellulose) (HPC)
[2] = dose: 200.0 mg/kg/injection, schedule: Q01DX009 (ip), vehicle: Klucel (hydroxypropylcellulose) (HPC)
[3] = dose: 400.0 mg/kg/injection, schedule: Q01DX009 (ip), vehicle: Klucel (hydroxypropylcellulose) (HPC)
[4] = dose: 100.0 mg/kg/injection, schedule: Q01DX001 (ip), vehicle: saline
[5] = dose: 200.0 mg/kg/injection, schedule: Q01DX001 (ip), vehicle: saline
[6] = dose: 400.0 mg/kg/injection, schedule: Q01DX001 (ip), vehicle: saline
[7] = dose: 100.0 mg/kg/injection, schedule: Q04DX002 (ip), vehicle: saline with Tween-80
[8] = dose: 200.0 mg/kg/injection, schedule: Q04DX002 (ip), vehicle: saline with Tween-80
[9] = dose: 100.0 mg/kg/injection, schedule: Q01DX009 (ip), vehicle: saline
[10] = dose: 200.0 mg/kg/injection, schedule: Q01DX009 (ip), vehicle: saline

Measured: T/C

CCN(CC)C(=S)[S][Sn]([S]C(=S)N(CC)CC)([c]1ccccc1)[c]1ccccc1
inactive: dose: 100.0 mg/kg/injection, schedule: Q01DX001 (ip), vehicle: other 97 % of control | dose: 200.0 mg/kg/injection, schedule: Q01DX001 (ip), vehicle: other 104 % of control | dose: 400.0 mg/kg/injection, schedule: Q01DX001 (ip), vehicle: other 112 % of control

CCS[S+](CC)CC
inactive: dose: 6.25 mg/kg/injection, schedule: Q01DX009 (ip), vehicle: saline with Tween-80 98 % of control | dose: 12.5 mg/kg/injection, schedule: Q01DX009 (ip), vehicle: saline with Tween-80 102 % of control

CCN1CCC(CCOC)(CN2c3ccccc3Sc3ccccc32)C1 (stereo unspecified)
inactive: dose: 12.5 mg/kg/injection, schedule: Q04DX003 (ip), vehicle: saline 95 % of control | dose: 25.0 mg/kg/injection, schedule: Q04DX003 (ip), vehicle: saline 97 % of control | dose: 50.0 mg/kg/injection, schedule: Q04DX003 (ip), vehicle: saline 104 % of control

CCCCCCCCCC(=O)N/N=C/c1ccccc1O
inactive: [1] 93 % of control | [2] 101 % of control | [3] 105 % of control

O=C1Nc2ccc3c4c(ccc1c24)CC3
inactive: dose: 50.0 mg/kg/injection, schedule: Q01DX001 (ip), vehicle: saline 104 % of control | [4] 95 % of control | [5] 98 % of control | [6] 98 % of control

CCCNC(=O)OC1CCS(=O)(=O)C1 (stereo unspecified)
inactive: dose: 100.0 mg/kg/injection, schedule: Q04DX002 (ip), vehicle: Klucel (hydroxypropylcellulose) (HPC) 95 % of control | dose: 200.0 mg/kg/injection, schedule: Q04DX002 (ip), vehicle: Klucel (hydroxypropylcellulose) (HPC) 100 % of control | dose: 400.0 mg/kg/injection, schedule: Q04DX002 (ip), vehicle: Klucel (hydroxypropylcellulose) (HPC) 95 % of control

CCOC(=O)C(C#N)C(C)(C[N+](=O)[O-])C1CC1 (stereo unspecified)
inactive: dose: 0.78 mg/kg/injection, schedule: Q04DX003 (ip), vehicle: saline with Tween-80 96 % of control | dose: 1.56 mg/kg/injection, schedule: Q04DX003 (ip), vehicle: saline with Tween-80 101 % of control | dose: 3.13 mg/kg/injection, schedule: Q04DX003 (ip), vehicle: saline with Tween-80 97 % of control

Nc1cncc(Br)c1NCCc1ccccc1
inactive: dose: 100.0 mg/kg/injection, schedule: Q01DX001 (ip), vehicle: carboxymethylcellulose (CMC) 103 % of control | dose: 200.0 mg/kg/injection, schedule: Q01DX001 (ip), vehicle: carboxymethylcellulose (CMC) 97 % of control | dose: 400.0 mg/kg/injection, schedule: Q01DX001 (ip), vehicle: carboxymethylcellulose (CMC) 101 % of control

CN(C)[C](=O)[Pb]([c]1ccccc1)([c]1ccccc1)[c]1ccccc1
inactive: [7] 98 % of control | [8] 98 % of control

CCCCCCN(CCCCCC)CC(=O)Nc1ccc(S(=O)(=O)c2ccc(NC(=O)CN(CCCCCC)CCCCCC)cc2)cc1
inactive: dose: 25.0 mg/kg/injection, schedule: Q01DX001 (ip), vehicle: carboxymethylcellulose (CMC) 114 % of control | dose: 50.0 mg/kg/injection, schedule: Q01DX001 (ip), vehicle: carboxymethylcellulose (CMC) 97 % of control

N=c1sc2ccccc2n1CC(=O)O
inactive: dose: 25.0 mg/kg/injection, schedule: Q01DX001 (ip), vehicle: saline with Tween-80 92 % of control | dose: 50.0 mg/kg/injection, schedule: Q01DX001 (ip), vehicle: saline with Tween-80 96 % of control | dose: 100.0 mg/kg/injection, schedule: Q01DX001 (ip), vehicle: saline with Tween-80 94 % of control

CCCCCCCCCCCCCCCCN1CCCN(CCCCCCCCCCCCCCCC)CC1
inactive: dose: 25.0 mg/kg/injection, schedule: Q01DX009 (ip), vehicle: saline 107 % of control and 113 % of control | dose: 50.0 mg/kg/injection, schedule: Q01DX009 (ip), vehicle: saline 95 % of control and 100 % of control | [9] 94 % of control and 102 % of control | [10] 91 % of control

CCOC(=O)CCN(C)C
inactive: [9] 104 % of control | [10] 101 % of control | dose: 400.0 mg/kg/injection, schedule: Q01DX009 (ip), vehicle: saline 98 % of control

CC(=O)[C@H]1CC[C@H]2[C@@H]3CCC4=CC(=O)CC[C@]4(C)[C@H]3CC[C@]12C
inactive: dose: 125.0 mg/kg/injection, schedule: Q01DX Z (sc), vehicle: steriod suspending solution 97 % of control | dose: 250.0 mg/kg/injection, schedule: Q01DX Z (sc), vehicle: steriod suspending solution 91 % of control | dose: 500.0 mg/kg/injection, schedule: Q01DX Z (sc), vehicle: steriod suspending solution 96 % of control | dose: 1000.0 mg/kg/injection, schedule: Q01DX Z (sc), vehicle: steriod suspending solution 92 % of control

CCN(CC)CCn1c(CC23CC4CC(CC(C4)C2)C3)nc2cc([N+](=O)[O-])ccc21
inactive: dose: 100.0 mg/kg/injection, schedule: Q01DX001 (ip), vehicle: Klucel (hydroxypropylcellulose) (HPC) 90 % of control | dose: 200.0 mg/kg/injection, schedule: Q01DX001 (ip), vehicle: Klucel (hydroxypropylcellulose) (HPC) 98 % of control

O=C1OC(=O)C2C3C=CC(C12)C1C3C1N1C(=O)CCC1=O (stereo unspecified)
inactive: dose: 50.0 mg/kg/injection, schedule: Q04DX003 (ip), vehicle: acetone 96 % of control | dose: 100.0 mg/kg/injection, schedule: Q04DX003 (ip), vehicle: acetone 88 % of control | dose: 200.0 mg/kg/injection, schedule: Q04DX003 (ip), vehicle: acetone 95 % of control

COC(=O)c1n[nH]c(C)c1N=NN1CCOCC1
inactive: dose: 75.0 mg/kg/injection, schedule: Q01DX001 (ip), vehicle: saline 105 % of control | dose: 150.0 mg/kg/injection, schedule: Q01DX001 (ip), vehicle: saline 103 % of control | dose: 300.0 mg/kg/injection, schedule: Q01DX001 (ip), vehicle: saline 105 % of control

O=C(C(=C(c1ccccc1)c1ccccc1)N1CCCCC1)c1ccccc1
inactive: [4] 96 % of control | [1] 92 % of control | [5] 97 % of control | [2] 92 % of control | [6] 97 % of control | [3] 92 % of control

Cc1nc(C#N)c(C#N)nc1-c1ccccc1
inactive: [7] 95 % of control | [8] 95 % of control | dose: 400.0 mg/kg/injection, schedule: Q04DX002 (ip), vehicle: saline with Tween-80 95 % of control

COc1cc(C2N(c3ccccc3)CCN2c2ccccc2)cc(OC)c1OC
inactive: [1] 97 % of control | dose: 100.0 mg/kg/injection, schedule: Q04DX003 (ip), vehicle: Klucel (hydroxypropylcellulose) (HPC) 90 % of control | dose: 200.0 mg/kg/injection, schedule: Q04DX003 (ip), vehicle: Klucel (hydroxypropylcellulose) (HPC) 93 % of control | [3] 94 % of control | dose: 400.0 mg/kg/injection, schedule: Q04DX003 (ip), vehicle: Klucel (hydroxypropylcellulose) (HPC) 95 % of control

CSc1ccc(NC(=O)Nc2nccs2)cc1
inactive: dose: 200.0 mg/kg/injection, schedule: Q04DX003 (ip), vehicle: saline sonified 87 % of control | dose: 400.0 mg/kg/injection, schedule: Q04DX003 (ip), vehicle: saline sonified 92 % of control

Clc1ccc(/C=N/Nc2c3ccccc3nc3ccccc23)c(Cl)c1
inactive: [4] 92 % of control | [5] 97 % of control | [6] 100 % of control

NCC1OC(OC2C(N)CC(N)C(OC3OC(CO)C(O)C(N)C3O)C2O)C(N)CC1O (stereo unspecified)
inactive: dose: 50.0 mg/kg/injection, schedule: Q04DX002 (ip), vehicle: saline 114 % of control | dose: 100.0 mg/kg/injection, schedule: Q04DX002 (ip), vehicle: saline 103 % of control | dose: 200.0 mg/kg/injection, schedule: Q04DX002 (ip), vehicle: saline 114 % of control

O=C1CCC(=O)N1C1c2ccccc2Oc2ccccc21
inactive: dose: 100.0 mg/kg/injection, schedule: Q04DX003 (ip), vehicle: saline 95 % of control | dose: 200.0 mg/kg/injection, schedule: Q04DX003 (ip), vehicle: saline 95 % of control | dose: 400.0 mg/kg/injection, schedule: Q04DX003 (ip), vehicle: saline 90 % of control

O=Nc1c(S(=O)(=O)O)cc2cc(S(=O)(=O)O)cc(O)c2c1O.[Cu+2]
inactive: dose: 0.16 mg/kg/injection, schedule: Q01DX009 (ip), vehicle: saline 95 % of control | dose: 0.31 mg/kg/injection, schedule: Q01DX009 (ip), vehicle: saline 103 % of control | dose: 0.63 mg/kg/injection, schedule: Q01DX009 (ip), vehicle: saline 92 % of control | dose: 1.25 mg/kg/injection, schedule: Q04DX003 (ip), vehicle: saline 102 % of control | dose: 2.5 mg/kg/injection, schedule: Q04DX003 (ip), vehicle: saline 102 % of control | dose: 5.0 mg/kg/injection, schedule: Q04DX003 (ip), vehicle: saline 94 % of control
